Assays:
Mouse urotensin (mUR2) = target: T1, Mouse urotensin (mUR2) (Mus musculus, UniProt Q8VIH9); test: Radioligand binding, mouse urotensin mUR2 membranes, FlashPlate, [125I]-Urotensin II; conditions: compound at 10 μM; for A11 radioligand binding inhibition: mouse urotensin mUR2 membranes
T1 construct: purchased Perkin Elmer Biosignal
T1 sequence (Q8VIH9 1-385): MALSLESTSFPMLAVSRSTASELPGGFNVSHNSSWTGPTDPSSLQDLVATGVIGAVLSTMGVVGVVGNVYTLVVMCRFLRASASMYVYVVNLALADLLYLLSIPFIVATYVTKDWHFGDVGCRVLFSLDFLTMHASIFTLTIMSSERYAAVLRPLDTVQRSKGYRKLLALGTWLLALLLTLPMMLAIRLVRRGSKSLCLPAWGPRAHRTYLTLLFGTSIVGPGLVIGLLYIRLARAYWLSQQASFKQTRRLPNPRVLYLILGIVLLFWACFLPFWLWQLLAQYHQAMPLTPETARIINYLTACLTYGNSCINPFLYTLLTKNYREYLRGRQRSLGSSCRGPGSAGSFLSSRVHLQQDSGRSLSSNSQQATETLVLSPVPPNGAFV
Outline: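 Cloned mouse urotensin (mUR2) receptor membranes from Perkin Elmer Biosignal were immobilized in FlashPlate microplates using a proprietary coating. Each well got 19.5 μl buffer, then 0.5 μl of DMSO, reference ligand, or compound. Adding 5 μl of [125I]-Urotensin II, diluted to 5× final concentration in binding buffer, started binding. Plates were sealed with TopSeal-A and incubated 1 hour at room temperature in the dark. Wells were counted for 30 seconds each on a TopCount after a 60-second delay, and percentage inhibition was calculated.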

Human melanocortin (MC5) = target: T2, Human melanocortin (MC5) (Homo sapiens, UniProt P33032); test: Radioligand binding, human melanocortin MC5 membranes, FlashPlate, [125I]-NDP-αMSH; conditions: compound at 10 μM; for A5 radioligand binding inhibition: human melanocortin MC5 membranes
T2 construct: purchased Perkin Elmer Biosignal
T2 sequence (P33032 whole entry): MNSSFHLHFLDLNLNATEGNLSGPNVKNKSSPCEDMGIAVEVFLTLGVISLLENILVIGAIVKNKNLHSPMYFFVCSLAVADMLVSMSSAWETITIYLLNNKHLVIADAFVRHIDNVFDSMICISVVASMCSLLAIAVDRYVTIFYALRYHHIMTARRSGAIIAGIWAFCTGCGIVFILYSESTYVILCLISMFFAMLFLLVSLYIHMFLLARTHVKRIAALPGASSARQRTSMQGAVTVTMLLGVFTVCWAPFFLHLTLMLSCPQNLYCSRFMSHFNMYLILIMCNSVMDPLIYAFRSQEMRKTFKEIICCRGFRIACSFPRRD
Outline: (§1)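 Cloned human receptor membranes were coated onto FlashPlate wells and incubated with radioligand and compound (added from a 0.5 mM DMSO daughter plate) for 1 hour at room temperature in the dark. Scintillation counting gave percent inhibition, with DMSO defining total and reference ligand defining non-specific binding.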

Human κ-Opioid (KOP) = target: T3, Human κ-Opioid (KOP) (Homo sapiens, UniProt P41145); test: Radioligand binding, human κ-opioid (KOP) membranes, filtration, [3H]-Diprenorphine; conditions: compound at 10 μM; for A2 radioligand binding inhibition: human κ-opioid (KOP) membranes
T3 construct: purchased Perkin Elmer Biosignal
T3 sequence (P41145 whole entry): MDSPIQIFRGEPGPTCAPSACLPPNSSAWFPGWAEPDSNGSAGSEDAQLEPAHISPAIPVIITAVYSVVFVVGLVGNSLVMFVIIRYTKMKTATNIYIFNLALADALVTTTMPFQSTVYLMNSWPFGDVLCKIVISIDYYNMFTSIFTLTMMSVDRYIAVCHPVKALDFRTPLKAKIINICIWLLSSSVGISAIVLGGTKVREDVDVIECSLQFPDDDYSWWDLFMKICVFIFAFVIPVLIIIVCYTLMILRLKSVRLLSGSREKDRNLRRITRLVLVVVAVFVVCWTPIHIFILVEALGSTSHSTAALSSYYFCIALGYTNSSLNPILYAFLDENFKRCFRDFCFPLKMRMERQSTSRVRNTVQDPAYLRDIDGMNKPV
Outline: (§2)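 Filtration binding on cloned human receptor membranes (1 Unit/well), [125I]-Substance P for NK1 and [3H]-Diprenorphine for KOP, 1 h at room temperature. Filters PEI-presoaked, washed with cold 50 mM Tris-HCl pH 7.4, counted by scintillation; percent inhibition calculated, reference ligand defining non-specific binding.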

[1] = target: T4, Human neuropeptide Y (NPY-Y1) (Homo sapiens, UniProt P25929); test: Radioligand binding, human neuropeptide Y NPY-Y1 membranes, FlashPlate, [125I]-PYY; conditions: compound at 10 μM
T4 construct: purchased Perkin Elmer Biosignal
T4 sequence (P25929 1-384): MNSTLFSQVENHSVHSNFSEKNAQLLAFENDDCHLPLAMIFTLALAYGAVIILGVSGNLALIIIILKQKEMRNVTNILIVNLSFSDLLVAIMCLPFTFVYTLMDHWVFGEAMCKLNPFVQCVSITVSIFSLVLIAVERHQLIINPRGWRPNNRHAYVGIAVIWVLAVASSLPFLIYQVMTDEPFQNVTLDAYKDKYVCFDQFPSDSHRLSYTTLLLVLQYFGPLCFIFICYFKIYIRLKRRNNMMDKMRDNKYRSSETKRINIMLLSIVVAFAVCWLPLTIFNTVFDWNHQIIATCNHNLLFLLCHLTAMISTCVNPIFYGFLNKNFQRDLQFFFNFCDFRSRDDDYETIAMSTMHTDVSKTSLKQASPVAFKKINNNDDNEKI
Outline: as §1

Human Melanocortin (MC4) = target: T5, Human Melanocortin (MC4) (Homo sapiens, UniProt P32245); test: Radioligand binding, human melanocortin MC4 membranes, FlashPlate, [125I]-NDP-αMSH; conditions: compound at 10 μM; for A4 radioligand binding inhibition: human melanocortin MC4 membranes
T5 construct: purchased Perkin Elmer Biosignal
T5 sequence (P32245 whole entry): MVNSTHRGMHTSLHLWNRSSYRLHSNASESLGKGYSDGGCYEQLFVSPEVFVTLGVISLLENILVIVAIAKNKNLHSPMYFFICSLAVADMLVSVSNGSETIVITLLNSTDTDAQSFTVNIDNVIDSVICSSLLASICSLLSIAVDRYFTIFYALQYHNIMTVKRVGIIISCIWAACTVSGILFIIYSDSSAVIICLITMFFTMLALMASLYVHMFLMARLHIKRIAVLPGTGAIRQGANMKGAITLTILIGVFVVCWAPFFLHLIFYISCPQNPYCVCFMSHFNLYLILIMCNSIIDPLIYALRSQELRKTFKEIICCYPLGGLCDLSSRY
Outline: as §1

Human Melanocortin (MC3) = target: T6, Human Melanocortin (MC3) (Homo sapiens, UniProt P41968); test: Radioligand binding, human melanocortin MC3 membranes, FlashPlate, [125I]-NDP-αMSH; conditions: compound at 10 μM; for A3 radioligand binding inhibition: human melanocortin MC3 membranes
T6 construct: purchased Perkin Elmer Biosignal
T6 sequence (P41968 whole entry): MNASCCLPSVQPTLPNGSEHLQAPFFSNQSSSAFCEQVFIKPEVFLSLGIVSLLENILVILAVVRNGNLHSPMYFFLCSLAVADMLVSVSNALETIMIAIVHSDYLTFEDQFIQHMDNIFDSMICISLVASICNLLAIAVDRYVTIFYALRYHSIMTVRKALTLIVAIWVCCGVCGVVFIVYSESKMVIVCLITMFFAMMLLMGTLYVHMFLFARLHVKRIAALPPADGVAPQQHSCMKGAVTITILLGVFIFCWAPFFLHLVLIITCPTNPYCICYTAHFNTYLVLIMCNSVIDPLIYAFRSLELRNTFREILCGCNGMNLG
Outline: as §1

Human μ-opioid (MOP) = target: T7, Human μ-opioid (MOP) (Homo sapiens, UniProt P35372); test: Radioligand binding, human μ-opioid (MOP) membranes, FlashPlate, [3H]-Naloxone; conditions: compound at 10 μM; for A7 radioligand binding inhibition: human μ-opioid (MOP) membranes
T7 construct: purchased Perkin Elmer Biosignal
T7 sequence (P35372 whole entry): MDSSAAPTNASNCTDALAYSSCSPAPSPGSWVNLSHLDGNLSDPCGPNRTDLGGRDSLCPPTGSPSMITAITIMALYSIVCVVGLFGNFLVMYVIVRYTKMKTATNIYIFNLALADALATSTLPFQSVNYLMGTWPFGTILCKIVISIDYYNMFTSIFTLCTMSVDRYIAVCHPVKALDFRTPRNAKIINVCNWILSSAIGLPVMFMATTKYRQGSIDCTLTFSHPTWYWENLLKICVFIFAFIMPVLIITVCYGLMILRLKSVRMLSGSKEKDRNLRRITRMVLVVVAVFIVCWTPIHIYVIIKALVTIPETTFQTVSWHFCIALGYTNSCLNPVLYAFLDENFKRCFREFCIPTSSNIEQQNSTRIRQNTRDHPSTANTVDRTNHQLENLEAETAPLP
Outline: as §1

Human opioid (ORL1) = target: T8, Human opioid (ORL1) (Homo sapiens, UniProt P41146); test: Radioligand binding, human opioid ORL1 membranes, FlashPlate, [125I]-Nociceptin; conditions: compound at 10 μM
T8 construct: purchased Perkin Elmer Biosignal
T8 sequence (P41146 whole entry): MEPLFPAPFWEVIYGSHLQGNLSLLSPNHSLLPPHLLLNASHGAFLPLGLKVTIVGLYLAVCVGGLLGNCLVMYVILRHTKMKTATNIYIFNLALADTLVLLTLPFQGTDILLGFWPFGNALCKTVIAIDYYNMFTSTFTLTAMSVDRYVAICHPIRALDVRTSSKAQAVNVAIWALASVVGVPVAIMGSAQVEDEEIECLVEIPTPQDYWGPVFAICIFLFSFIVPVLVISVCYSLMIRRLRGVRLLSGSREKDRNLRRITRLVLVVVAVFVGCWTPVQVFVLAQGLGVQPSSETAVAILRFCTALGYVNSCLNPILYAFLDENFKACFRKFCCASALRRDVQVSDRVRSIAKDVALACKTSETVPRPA
Outline: as §1

Human neurokinin (NK1) = target: T9, Human neurokinin (NK1) (Homo sapiens, UniProt P25103); test: Radioligand binding, human neurokinin NK1 membranes, filtration, [125I]-Substance P; conditions: compound at 10 μM; for A8 radioligand binding inhibition: human neurokinin NK1 membranes
T9 construct: purchased Perkin Elmer Biosignal
T9 sequence (P25103 whole entry): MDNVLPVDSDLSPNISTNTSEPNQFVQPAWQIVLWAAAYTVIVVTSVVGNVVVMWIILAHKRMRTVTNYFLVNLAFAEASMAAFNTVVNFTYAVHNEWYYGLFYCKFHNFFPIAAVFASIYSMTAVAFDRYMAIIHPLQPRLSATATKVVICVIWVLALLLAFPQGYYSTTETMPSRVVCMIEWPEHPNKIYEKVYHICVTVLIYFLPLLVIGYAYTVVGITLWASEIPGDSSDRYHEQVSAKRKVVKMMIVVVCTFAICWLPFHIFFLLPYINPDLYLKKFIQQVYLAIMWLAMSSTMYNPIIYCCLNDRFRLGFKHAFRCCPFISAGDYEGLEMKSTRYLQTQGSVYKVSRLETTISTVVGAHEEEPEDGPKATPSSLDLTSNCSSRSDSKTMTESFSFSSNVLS
Outline: as §2

[2] = target: T10, Human melanin-concentrating hormone (MCH1) (Homo sapiens, UniProt Q99705); test: Radioligand binding, human melanin-concentrating hormone MCH1 membranes, FlashPlate, [125I]-S36057; conditions: compound at 10 μM; for A6 radioligand binding inhibition: human MCH1 membranes
T10 construct: purchased Perkin Elmer Biosignal
T10 sequence (Q99705 whole entry): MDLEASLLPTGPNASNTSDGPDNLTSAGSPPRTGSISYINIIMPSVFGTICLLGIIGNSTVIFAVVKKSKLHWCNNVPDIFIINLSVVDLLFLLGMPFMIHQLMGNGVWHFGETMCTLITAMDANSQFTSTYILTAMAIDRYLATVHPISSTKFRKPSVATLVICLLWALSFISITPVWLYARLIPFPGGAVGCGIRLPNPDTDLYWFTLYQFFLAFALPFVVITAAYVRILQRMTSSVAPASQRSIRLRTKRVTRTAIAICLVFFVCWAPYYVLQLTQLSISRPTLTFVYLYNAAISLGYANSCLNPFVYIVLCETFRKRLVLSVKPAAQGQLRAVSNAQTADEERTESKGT
Outline: as §1

Human δ-opioid (DOP) = target: T11, Human δ-opioid (DOP) (Homo sapiens, UniProt P41143); test: Radioligand binding, human δ-opioid (DOP) membranes, FlashPlate, [3H]-Bremazocine; conditions: compound at 10 μM; for A1 radioligand binding inhibition: human δ-opioid (DOP) membranes
T11 construct: purchased Perkin Elmer Biosignal
T11 sequence (P41143 whole entry): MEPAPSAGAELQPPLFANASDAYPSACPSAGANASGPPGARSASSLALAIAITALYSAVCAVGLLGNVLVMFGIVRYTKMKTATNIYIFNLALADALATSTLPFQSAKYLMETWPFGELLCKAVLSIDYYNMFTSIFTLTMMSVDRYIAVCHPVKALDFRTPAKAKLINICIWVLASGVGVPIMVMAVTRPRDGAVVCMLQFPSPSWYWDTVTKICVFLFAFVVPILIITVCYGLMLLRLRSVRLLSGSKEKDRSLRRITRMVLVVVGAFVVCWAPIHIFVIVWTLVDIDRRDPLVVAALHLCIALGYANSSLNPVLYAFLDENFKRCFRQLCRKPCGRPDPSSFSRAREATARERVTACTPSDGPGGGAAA
Outline: as §1

SMILES | A11 radioligand binding inhibition (Mouse urotensin (mUR2)) | A5 radioligand binding inhibition (Human melanocortin (MC5)) | A2 radioligand binding inhibition (Human κ-Opioid (KOP)) | A9 radioligand binding inhibition ([1]; human NPY-Y1 membranes) | A4 radioligand binding inhibition (Human Melanocortin (MC4)) | A3 radioligand binding inhibition (Human Melanocortin (MC3)) | A7 radioligand binding inhibition (Human μ-opioid (MOP)) | A10 radioligand binding inhibition (Human opioid (ORL1); human ORL1 membranes) | A8 radioligand binding inhibition (Human neurokinin (NK1)) | A6 radioligand binding inhibition [2] | A1 radioligand binding inhibition (Human δ-opioid (DOP)) | other results
COC[C@H]1OC(OCc2ccc3ccccc3c2)[C@H](NC(=O)CCCN)[C@@H](OCc2ccc3ccccc3c2)[C@@H]1O (stereo partly shown) [compound 338] |  |  |  |  |  |  |  |  |  |  |  | A11: inhibition of radioligand binding, mouse urotensin (mUR2) (Mouse urotensin (mUR2); [125I]-Urotensin II): − (“−” indicates less than 50% inhibition at 10 μM); A5: inhibition of radioligand binding, human melanocortin (MC5) (Human melanocortin (MC5); [125I]-NDP-αMSH): − (“−” indicates less than 50% inhibition at 10 μM); A2: inhibition of radioligand binding, human κ-opioid (KOP) (Human κ-Opioid (KOP); [3H]-Diprenorphine): − (“−” indicates less than 50% inhibition at 10 μM); A9: inhibition of radioligand binding, human neuropeptide Y (NPY-Y1) ([1]; [125I]-PYY): − (“−” indicates less than 50% inhibition at 10 μM); A4: inhibition of radioligand binding, human melanocortin (MC4) (Human Melanocortin (MC4); [125I]-NDP-αMSH): − (“−” indicates less than 50% inhibition at 10 μM); A3: inhibition of radioligand binding, human melanocortin (MC3) (Human Melanocortin (MC3); [125I]-NDP-αMSH): − (“−” indicates less than 50% inhibition at 10 μM); A7: inhibition of radioligand binding, human μ-opioid (MOP) (Human μ-opioid (MOP); [3H]-Naloxone): + (“+” indicates greater than 50% inhibition at 10 μM); A10: inhibition of radioligand binding, human opioid (ORL1) (Human opioid (ORL1); [125I]-Nociceptin): − (“−” indicates less than 50% inhibition at 10 μM); A8: inhibition of radioligand binding, human neurokinin (NK1) (Human neurokinin (NK1); [125I]-Substance P): + (“+” indicates greater than 50% inhibition at 10 μM); A6: inhibition of radioligand binding, human melanin-concentrating hormone (MCH1) ([2]; [125I]-S36057): − (“−” indicates less than 50% inhibition at 10 μM); A1: inhibition of radioligand binding, human δ-opioid (DOP) (Human δ-opioid (DOP); [3H]-Bremazocine): − (“−” indicates less than 50% inhibition at 10 μM)
N=C(N)NCC(=O)NC1C(OCc2ccc(-c3ccccc3)cc2)OC(COCc2ccccc2)C(O)C1OCc1ccc(Cl)cc1 (stereo not shown) [compound 400] |  |  |  |  |  |  |  |  |  |  |  | A11: inhibition of radioligand binding (Mouse urotensin (mUR2); [125I]-Urotensin II, mouse mUR2 membranes): − (“−” indicates less than 50% inhibition at 10 μM); A5: inhibition of radioligand binding (Human melanocortin (MC5); [125I]-NDP-αMSH, human MC5 membranes): + (“+” indicates greater than 50% inhibition at 10 μM); A2: inhibition of radioligand binding (Human κ-Opioid (KOP); [3H]-Diprenorphine, human KOP membranes): − (“−” indicates less than 50% inhibition at 10 μM); A9: inhibition of radioligand binding ([1]; [125I]-PYY, human NPY-Y1 membranes): − (“−” indicates less than 50% inhibition at 10 μM); A4: inhibition of radioligand binding (Human Melanocortin (MC4); [125I]-NDP-αMSH, human MC4 membranes): + (“+” indicates greater than 50% inhibition at 10 μM); A3: inhibition of radioligand binding (Human Melanocortin (MC3); [125I]-NDP-αMSH, human MC3 membranes): + (“+” indicates greater than 50% inhibition at 10 μM); A7: inhibition of radioligand binding (Human μ-opioid (MOP); [3H]-Naloxone, human MOP membranes): − (“−” indicates less than 50% inhibition at 10 μM); A10: inhibition of radioligand binding (Human opioid (ORL1); [125I]-Nociceptin, human ORL1 membranes): + (“+” indicates greater than 50% inhibition at 10 μM); A8: inhibition of radioligand binding (Human neurokinin (NK1); [125I]-Substance P, human NK1 membranes): + (“+” indicates greater than 50% inhibition at 10 μM); A6: inhibition of radioligand binding ([2]; [125I]-S36057, human MCH1 membranes): + (“+” indicates greater than 50% inhibition at 10 μM); A1: inhibition of radioligand binding (Human δ-opioid (DOP); [3H]-Bremazocine, human DOP membranes): − (“−” indicates less than 50% inhibition at 10 μM)
COC[C@H]1OC(OCCc2ccccc2)[C@H](NC(=O)CNC(=N)N)[C@@H](OCc2ccc3ccccc3c2)[C@@H]1O (stereo partly shown) [compound 44] | − (“−” indicates less than 50% inhibition at 10 μM) | + (“+” indicates greater than 50% inhibition at 10 μM) | − (“−” indicates less than 50% inhibition at 10 μM) | − (“−” indicates less than 50% inhibition at 10 μM) | + (“+” indicates greater than 50% inhibition at 10 μM) | − (“−” indicates less than 50% inhibition at 10 μM) | − (“−” indicates less than 50% inhibition at 10 μM) | − (“−” indicates less than 50% inhibition at 10 μM) | − (“−” indicates less than 50% inhibition at 10 μM) | − (“−” indicates less than 50% inhibition at 10 μM) | − (“−” indicates less than 50% inhibition at 10 μM) | 
CO[C@H]1[C@H](O)[C@@H](COCc2ccccc2)OC(OCc2ccc3ccccc3c2)[C@@H]1NC(=O)CCCN (stereo partly shown) [compound 76] | − (“−” indicates less than 50% inhibition at 10 μM) | − (“−” indicates less than 50% inhibition at 10 μM) | − (“−” indicates less than 50% inhibition at 10 μM) | − (“−” indicates less than 50% inhibition at 10 μM) | − (“−” indicates less than 50% inhibition at 10 μM) | − (“−” indicates less than 50% inhibition at 10 μM) | − (“−” indicates less than 50% inhibition at 10 μM) | − (“−” indicates less than 50% inhibition at 10 μM) | + (“+” indicates greater than 50% inhibition at 10 μM) | − (“−” indicates less than 50% inhibition at 10 μM) | − (“−” indicates less than 50% inhibition at 10 μM) | 
COC[C@H]1OC(OCc2ccc(-c3ccccc3)cc2)[C@H](NC(=O)CCNC(=N)N)[C@@H](OCc2ccccc2)[C@@H]1O (stereo partly shown) [compound 7] | − (“−” indicates less than 50% inhibition at 10 μM) | − (“−” indicates less than 50% inhibition at 10 μM) | − (“−” indicates less than 50% inhibition at 10 μM) | − (“−” indicates less than 50% inhibition at 10 μM) | − (“−” indicates less than 50% inhibition at 10 μM) | − (“−” indicates less than 50% inhibition at 10 μM) | + (“+” indicates greater than 50% inhibition at 10 μM) | − (“−” indicates less than 50% inhibition at 10 μM) | + (“+” indicates greater than 50% inhibition at 10 μM) | + (“+” indicates greater than 50% inhibition at 10 μM) | − (“−” indicates less than 50% inhibition at 10 μM) | 

Reference: patent publication US20080009418A1, “Selective Inhibitors” (Alchemia LTD., priority 2004, published 2008)
